The IC50 is the midpoint of a concentration-inhibition curve.

Assay [1] has as its target T1, Prostaglandin E synthase (Homo sapiens, UniProt O14684).
T1 sequence (O14684 whole entry): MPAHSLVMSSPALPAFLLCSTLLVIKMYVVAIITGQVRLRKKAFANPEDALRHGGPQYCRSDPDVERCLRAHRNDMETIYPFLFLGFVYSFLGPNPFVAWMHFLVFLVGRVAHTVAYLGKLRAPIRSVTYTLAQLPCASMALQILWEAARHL
The assay is described as follows: Inhibition of mPGES1 in LPS-stimulated human whole blood assessed as reduction in PGE2 production incubated for 24 hrs at 37 degC by enzyme immunoassay.

For assay [2], the target named is T2, Polyunsaturated fatty acid 5-lipoxygenase (Rattus norvegicus, UniProt P12527).
T2 sequence (P12527 whole entry): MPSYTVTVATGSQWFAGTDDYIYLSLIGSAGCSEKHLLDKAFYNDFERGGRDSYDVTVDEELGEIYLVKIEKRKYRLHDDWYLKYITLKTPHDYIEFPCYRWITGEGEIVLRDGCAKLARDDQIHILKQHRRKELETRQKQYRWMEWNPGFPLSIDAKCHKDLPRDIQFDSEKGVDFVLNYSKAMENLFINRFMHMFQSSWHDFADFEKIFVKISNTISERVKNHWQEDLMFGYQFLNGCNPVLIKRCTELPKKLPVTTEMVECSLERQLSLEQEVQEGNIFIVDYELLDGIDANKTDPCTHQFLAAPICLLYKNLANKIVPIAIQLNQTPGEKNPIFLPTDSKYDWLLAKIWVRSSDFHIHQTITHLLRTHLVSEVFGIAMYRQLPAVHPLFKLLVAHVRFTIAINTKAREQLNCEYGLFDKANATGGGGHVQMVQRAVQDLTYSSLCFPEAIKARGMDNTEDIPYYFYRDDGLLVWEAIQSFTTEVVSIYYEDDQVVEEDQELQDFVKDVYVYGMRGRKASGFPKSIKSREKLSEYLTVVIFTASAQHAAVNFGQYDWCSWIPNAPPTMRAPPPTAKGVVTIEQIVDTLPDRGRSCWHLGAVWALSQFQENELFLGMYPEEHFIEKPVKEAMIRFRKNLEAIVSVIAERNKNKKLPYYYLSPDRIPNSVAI
The assay is described as follows: Inhibition of 5-LOX in rat RBL1 cells assessed as reduction in LTB4 production. The format is cell-based, RBL-1.

`CC1(C)Cc2c(-c3ccccc3)c(-c3ccc(Cl)cc3)c(CC(=O)O)n2C1` [LICOFELONE]: the 50% inhibitory concentration (IC50) in assay [1] was 3.9 µM; in assay [2], 3.6 µM.
